Our source for the T/C values is PubChem BioAssay AID330 (DTP/NCI, 2004).

In this assay the test system is P388 leukemia ip, CD2F1 mice, survival T/C. Briefly: NCI In Vivo Anticancer Drug Screen. Data for tumor model P388 Leukemia (intraperitoneal) in CD2F1 (CDF1) mice. Particulars: endpoint: median survival time, higher = longer survival. Summed up: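 Mice carrying the transplanted tumor received test compound or vehicle. Survival was recorded in each group, and the value is the treated-group measurement divided by that of the vehicle-treated control group.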

[1] abbreviates: dose: 50.0 mg/kg/injection, schedule: Q01DX009 (ip), vehicle: saline.
[2] abbreviates: dose: 100.0 mg/kg/injection, schedule: Q01DX009 (ip), vehicle: saline.
The mark [3] stands for this setting: dose: 200.0 mg/kg/injection, schedule: Q01DX009 (ip), vehicle: saline.
Where [4] appears, read: dose: 60.0 mg/kg/injection, schedule: Q01DX005 (ip), vehicle: saline with Tween-80.
The mark [5] stands for this setting: dose: 120.0 mg/kg/injection, schedule: Q01DX005 (ip), vehicle: saline.
Setting [6] is: dose: 240.0 mg/kg/injection, schedule: Q01DX005 (ip), vehicle: saline with Tween-80.
Where [7] appears, read: dose: 240.0 mg/kg/injection, schedule: Q01DX005 (ip), vehicle: saline.
[8] abbreviates: dose: 120.0 mg/kg/injection, schedule: Q01DX005 (ip), vehicle: saline with Tween-80.
Where [9] appears, read: dose: 50.0 mg/kg/injection, schedule: Q01DX009 (ip), vehicle: Klucel (hydroxypropylcellulose) (HPC).
[10] abbreviates: dose: 100.0 mg/kg/injection, schedule: Q01DX009 (ip), vehicle: Klucel (hydroxypropylcellulose) (HPC).
[11] abbreviates: dose: 12.5 mg/kg/injection, schedule: Q01DX009 (ip), vehicle: saline with Tween-80.
Setting [12] is: dose: 50.0 mg/kg/injection, schedule: Q01DX005 (ip), vehicle: saline with Tween-80.
[13] abbreviates: dose: 100.0 mg/kg/injection, schedule: Q01DX005 (ip), vehicle: saline with Tween-80.
[14] abbreviates: dose: 25.0 mg/kg/injection, schedule: Q01DX009 (ip), vehicle: saline with Tween-80.
The mark [15] stands for this setting: dose: 50.0 mg/kg/injection, schedule: Q01DX009 (ip), vehicle: saline with Tween-80.
Where [16] appears, read: dose: 100.0 mg/kg/injection, schedule: Q01DX009 (ip), vehicle: saline with Tween-80.
The mark [17] stands for this setting: dose: 200.0 mg/kg/injection, schedule: Q01DX009 (ip), vehicle: saline with Tween-80.

Where “and” joins values, the source holds several entries; their conditions need not be identical. Equal entries are not always repeated. Inconclusive results and toxic doses are left out.

On to `COc1ccc2c(c1)OC(C)(C)C=C2`, for which the T/C is 87 % of control (dose: 8.75 mg/kg/injection, schedule: Q01DX009 (ip), vehicle: saline with Tween-80); 98 % of control (dose: 17.5 mg/kg/injection, schedule: Q01DX009 (ip), vehicle: saline with Tween-80); 106 % of control (dose: 35.0 mg/kg/injection, schedule: Q01DX009 (ip), vehicle: saline with Tween-80); 110 % of control (dose: 70.0 mg/kg/injection, schedule: Q01DX009 (ip), vehicle: saline with Tween-80).
For the molecule `CC(C)(OC(C)(C)C(=O)O)C(=O)O`, the T/C is 99 % of control under setting [1], 94 % of control under setting [2] and 92 % of control under setting [3].
As for `CN(c1ccccc1)c1c(Cl)c(=O)oc2c1ccc1occc12`, the T/C (dose: 30.0 mg/kg/injection, schedule: Q01DX005 (ip), vehicle: saline with Tween-80) is 103 % of control; the T/C under setting [4] is 106 % of control; the T/C under setting [5] is 96 % of control; the T/C under setting [6] was 105 % of control; the T/C under setting [7] was 103 % of control.
As for `CCOc1c(N=Nc2cccc([N+](=O)[O-])c2)c(C)nn1C(=S)SC`, the T/C (dose: 60.0 mg/kg/injection, schedule: Q01DX005 (ip), vehicle: Klucel (hydroxypropylcellulose) (HPC)) was 93 % of control and the T/C (dose: 120.0 mg/kg/injection, schedule: Q01DX005 (ip), vehicle: Klucel (hydroxypropylcellulose) (HPC)) was 90 % of control.
Turning to `CSc1nc2c(=O)[nH]cnc2s1`, the T/C under setting [4] is 105 % of control, the T/C under setting [8] is 102 % of control and the T/C under setting [6] was 96 % of control.
Take `COc1cc2nc3occc3c(OC)c2cc1OCC(O)C(C)(C)O` (centres undefined): the T/C (dose: 12.5 mg/kg/injection, schedule: Q01DX005 (ip), vehicle: distilled water + Tween-80) is 91 % of control and the T/C (dose: 25.0 mg/kg/injection, schedule: Q01DX005 (ip), vehicle: distilled water + Tween-80) is 98 % of control.
For the molecule `C=CCN1CCCSC1=S`, the T/C under setting [9] is 106 % of control and the T/C under setting [10] was 108 % of control.
As to `CNC(=S)N/N=C(C)\C=N/Nc1cccc(Cl)c1`, the T/C runs as follows: (dose: 100.0 mg/kg/injection, schedule: Q04DX003 (ip), vehicle: saline) 92 % of control; (dose: 200.0 mg/kg/injection, schedule: Q04DX003 (ip), vehicle: saline) 93 % of control; (dose: 400.0 mg/kg/injection, schedule: Q04DX003 (ip), vehicle: saline) 100 % of control.
As to `CC(C)(C)CC(C)(C)NCC(O)COc1ccc(C(C)(C)c2ccc(OCC(O)CNC(C)(C)CC(C)(C)C)cc2)cc1` (centres undefined), the T/C (dose: 3.13 mg/kg/injection, schedule: Q01DX009 (ip), vehicle: other) is 104 % of control; the T/C (dose: 3.13 mg/kg/injection, schedule: Q04DX003 (ip), vehicle: other) was 108 % of control; the T/C (dose: 6.25 mg/kg/injection, schedule: Q01DX009 (ip), vehicle: other) is 90 % of control; the T/C (dose: 6.25 mg/kg/injection, schedule: Q04DX003 (ip), vehicle: other) is 100 % of control.
Take `O=C(CCC(=O)Nc1cc(Cl)ccc1Cl)CC(=O)c1ccc([N+](=O)[O-])cc1`: the T/C is 98 % of control under setting [4], 100 % of control under setting [8] and 109 % of control under setting [6].
In the case of `CSC(=S)N/N=C\C(O)C(O)C(O)C(O)CO` (centres undefined), the T/C is 104 % of control (dose: 6.25 mg/kg/injection, schedule: Q04DX003 (ip), vehicle: saline); 109 % of control (dose: 12.5 mg/kg/injection, schedule: Q04DX003 (ip), vehicle: saline); 102 % of control (dose: 25.0 mg/kg/injection, schedule: Q04DX003 (ip), vehicle: saline).
As for `Cc1cc(N(CCCl)CCCl)ccc1CN1CCCN(Cc2ccc(N(CCCl)CCCl)cc2C)C1c1ccccc1O`, the T/C under setting [11] was 123 % of control.
For the molecule `CC(C)C(C(=O)CCN(C)C)c1ccc(Cl)cc1` (centres undefined), the T/C under setting [12] is 116 % of control and the T/C under setting [13] is 100 % of control.
Turning to `C#CCNC1=CC(=O)CCC1`, the T/C was 100 % of control (dose: 60.0 mg/kg/injection, schedule: Q01DX005 (ip), vehicle: saline); 106 % of control under setting [5]; 118 % of control under setting [7].
Consider `CNc1ccccc1C(=O)N/N=C/C=C/c1ccccc1`, for which the T/C runs as follows: under setting [11], 102 % of control; under setting [14], 105 % of control; under setting [15], 104 % of control; under setting [16], 118 % of control.
For `C[Si](C)(C)Cn1cccc1`, the T/C reads like this: under setting [4], 103 % of control; under setting [8], 102 % of control; under setting [6], 94 % of control.
As for `Cc1ccc(NCCNCCO)c2c(=O)c3cc(O)ccc3sc12`, the T/C reads like this: (dose: 6.25 mg/kg/injection, schedule: Q01DX009 (ip), vehicle: saline with Tween-80) 150 % of control; under setting [11], 156 % of control and 169 % of control; under setting [14], 103 % of control.
For the molecule `CC(F)C(C)C(N)C(=O)O` (centres undefined), the T/C is, setting by setting: under setting [15], 86 % of control; under setting [16], 91 % of control; under setting [17], 99 % of control.
As for `CCCCCCCCCCC(O)C(=O)O` (centres undefined), the T/C under setting [15] was 95 % of control and the T/C under setting [16] was 89 % of control.
Consider `CC1=NN(C(=O)c2ccncc2)C(=O)C1N=Nc1c(C)n(C)n(-c2ccccc2)c1=O` (centres undefined), for which the T/C by setting is: under setting [15], 102 % of control; under setting [16], 101 % of control; under setting [17], 99 % of control.
In the case of `C[N+]1(CCC(=O)c2ccccc2)CCCCC1`, the T/C was 97 % of control (dose: 12.5 mg/kg/injection, schedule: Q01DX009 (ip), vehicle: saline) and 107 % of control (dose: 25.0 mg/kg/injection, schedule: Q01DX009 (ip), vehicle: saline).
As to `Clc1ccc(-c2nc3ccccc3nc2-c2ccc(Cl)cc2)cc1`, the T/C is 101 % of control under setting [9]; 111 % of control under setting [10]; 106 % of control (dose: 200.0 mg/kg/injection, schedule: Q01DX009 (ip), vehicle: Klucel (hydroxypropylcellulose) (HPC)).
With `CC(C)C12CCC(=O)C=C1CCCC2O` (centres undefined), the T/C by setting is: (dose: 100.0 mg/kg/injection, schedule: Q01DX009 (ip), vehicle: saline sonified) 90 % of control; (dose: 200.0 mg/kg/injection, schedule: Q01DX009 (ip), vehicle: saline sonified) 100 % of control; (dose: 400.0 mg/kg/injection, schedule: Q01DX009 (ip), vehicle: saline sonified) 109 % of control.
Consider `CSCc1cc([N+](=O)[O-])ccc1N`, for which the T/C (dose: 100.0 mg/kg/injection, schedule: Q01DX001 (ip), vehicle: saline with Tween-80) was 91 % of control and the T/C (dose: 200.0 mg/kg/injection, schedule: Q01DX001 (ip), vehicle: saline with Tween-80) was 98 % of control.
Regarding `Cc1ncc([N+](=O)[O-])n1CCSC#N`, the T/C is 105 % of control (dose: 6.25 mg/kg/injection, schedule: Q04DX003 (ip), vehicle: saline with Tween-80) and 96 % of control (dose: 12.5 mg/kg/injection, schedule: Q04DX003 (ip), vehicle: saline with Tween-80).
On to `C[C@]12CC[C@H](O)C[C@@H]1CC[C@@H]1[C@@H]2C(=O)C[C@]2(C)C3=CC(=O)O[C@H]3C[C@@H]12`, for which the T/C by setting is: under setting [14], 109 % of control; (dose: 25.0 mg/kg/injection, schedule: Q04DX003 (ip), vehicle: saline with Tween-80) 117 % of control; under setting [15], 118 % of control; (dose: 50.0 mg/kg/injection, schedule: Q04DX003 (ip), vehicle: saline with Tween-80) 104 % of control; under setting [16], 86 % of control; (dose: 100.0 mg/kg/injection, schedule: Q04DX003 (ip), vehicle: saline with Tween-80) 113 % of control and 95 % of control.
As for `CCOC(=O)c1ncc(OCC)o1`, the T/C under setting [1] was 91 % of control, the T/C under setting [2] is 89 % of control and the T/C under setting [3] was 95 % of control.
In the case of `CC(C)(C)NC(=O)N1C2C3CCC(C)(OC3(C)C)C21` (centres undefined), the T/C was 98 % of control under setting [12] and 99 % of control under setting [13].
Regarding `CC1(C)CC(=O)C=C(n2ccccc2=O)C1`, the T/C runs as follows: under setting [4], 97 % of control; under setting [8], 102 % of control; under setting [6], 97 % of control.
